Results taken from US9763448B2, “Fungicidal mixtures I comprising strobilurin-type fungicides” (BASF SE, priority 2013, dated 2017).
Read-outs that look alike come from different tables or passages of the source.

Legend:
Format in all cases: cell-based
Pyricularia oryzae = settings: single compound, 7 days after inoculation, 18° C.
Phytophthora infestans = settings: 0.063 ppm, single compound; 7 days after inoculation, 18° C.
Leptosphaeria nodorum = assay: Microtest: activity against the wheat leaf spot pathogen Leptosphaeria nodorum (MTP, absorption at 405 nm); settings: 0.004 ppm, single compound; 7 days after inoculation, 18° C.

SMILES	Observed efficacy (Pyricularia oryzae; 0.016 ppm) [%]	Observed efficacy (Phytophthora infestans) [%]	Observed efficacy (Pyricularia oryzae; 0.00025 ppm) [%]	Observed efficacy (Leptosphaeria nodorum) [%]
OC(Cn1cncn1)(c1ccc(Oc2ccc(Cl)cc2)cc1C(F)(F)F)C1CC1 (stereo not drawn) [II-2, 1-[4-(4-chlorophenoxy)-2-(trifluoromethyl)phenyl]-1-cyclopropyl-2-(1,2,4-triazol-1-yl)ethanol]	6	–	–	–
CNC(=O)C(=N/OC)/C(C)=C\COc1ccn(-c2ccc(Cl)cc2F)n1 [I-13, (Z,2E)-5-[1-(4-chloro-2-fluoro-phenyl)pyrazol-3-yl]oxy-2-methoxyimino-N,3-dimethyl-pent-3-enamide]	–	4	7	21
CC(O)(Cn1cncn1)c1ccc(Oc2ccc(Cl)cc2)cc1C(F)(F)F (stereo not drawn) [II-6, 2-[4-(4-chlorophenoxy)-2-(trifluoromethyl)phenyl]-1-(1,2,4-triazol-1-yl)propan-2-ol]	–	7	–	7
